The source of these data is patent US10335048B2, “High-resolution metabolic neuroimaging” (Oregon Health & Science University, priority 2013, dated 2019).

The conditions of data set [1]: human, in vivo.
Excerpt: A 7 T [Tesla] whole-body MRI instrument (Siemens, Erlangen Germany), with quadrature transmission and 24-channel phased-array receive head RF coils, was used. Dynamic measurements employed a single-slice inversion recovery (IR) turboflash technique (Haase A. Snapshot FLASH MRI. Applications to T1, T2, and chemical-shift imaging. Magn. Reson. Med. 1990; 13: 77-89), sampling magnetization eight post-inversion times [TIs]: the inversion pulse was non-selective. […] Gadoteridol [ProHance; Bracco Diagnostics, Inc.] was injected into an antecubital vein catheter at 2.5 mL/s using a power injector [Medrad] to deliver a dose of 28 μmol/kg (typically ^˜5 mL), followed by a 15 mL saline flush at the same rate. […] Parametric R1 maps were calculated on a voxel basis by fitting the signal magnitude at each TI with a full Bloch simulation incorporating all RF pulses and delays. […]
Dynamic measurements were obtained using a single-slice inversion recovery (IR) turboflash technique that sampled magnetization at eight time points post inversion. […] Parametric R1 maps were calculated on a voxel basis by fitting the magnitude signal intensity at each inversion time to a full Bloch simulation that incorporated all RF pulses and delays and modeled the recovery from inversion as a two-parameter single exponential using a gradient expansion algorithm. […]
For data set [2], the system named is Na+/K+-ATPase. The note with it: within 15 minutes of direct application to the striatum; cited from earlier work.
Data set [3] concerns human prostate tumor. To be noted: cited from earlier work.
For data set [4] the following is noted: human, in vivo, iv; cited from earlier work.

As for `CC(O)CN1CCN(CC(=O)[O-])CCN(CC(=O)[O-])CCN(CC(=O)[O-])CC1.[Gd+3]` (stereo not shown) [GdHPDO3A, gadoteridol], in data set [1], the “maximum K^trans in the lesion center” value is “above 2×10^−3 min^−1”.

Take `C[C@@H]1O[C@@H](O[C@H]2C[C@@H](O)[C@]3(CO)[C@H]4[C@H](O)C[C@]5(C)[C@@H](C6=CC(=O)OC6)CC[C@]5(O)[C@@H]4CC[C@]3(O)C2)[C@H](O)[C@H](O)[C@H]1O` [ouabain]: the ADC drop in data set [2] was 40%.

As to `CC(=O)[13C](=O)O` [[1-^13C]pyruvate], in data set [3], the “[1-13C]pyruvate to [1-13C]lactate conversion rate constant” value is 0.045 s⁻¹.

For the compound ferumoxytol [Fe-tol], the “plasma t1/2” value in data set [4] is 14 h.
